The target in one data set is T1, human CB1 receptor (Homo sapiens, UniProt P21554).
T1 construct: expressed in transfected cells; host or cells: human embryonic kidney (HEK) cells, Semliki Forest Virus system, membrane preparation
In words: CB1 receptor affinity ([3H]-CP-55,940 displacement). The format is binding. The conditions noted are these: 10 μM, HEK cell membranes, radioligand [3H]-CP-55,940; read-out: CB1 receptor affinity [% inhibition @ 10 μM]. As for the experimental part:
(§1) The affinity of the compounds of the invention for cannabinoid receptors was determined using membrane preparations of human embryonic kidney (HEK) cells in which the human CB1 receptor is transiently transfected using a Semliki Forest Virus system in conjunction with [3H]-CP-55,940 as radioligand. After incubation of freshly prepared cell membrane preparation with the [^3H]-ligand, with or without addition of compounds of the invention, separation of bound and free ligand was performed by filtration over glass fiber filters. Radioactivity on the filter was measured by scintillation counting.
(§2) The ability of the compounds to displace the radioligand [^3H]-CP-55,940 was measured at a concentration of 10 μM and values provided as [% inhibition @ 10 μM] both for the CB 1 and CB2 receptor assay, The lower % inhibition is, the lower the likelihood of side effects based on CB1 or CB2 receptor inhibition is.

The target in the next data set is T2, human CB2 receptor (Homo sapiens, UniProt P34972).
T2 construct: expressed in transfected cells; host or cells: human embryonic kidney (HEK) cells, Semliki Forest Virus system, membrane preparation
As to the kind of experiment: CB2 receptor affinity ([3H]-CP-55,940 displacement). The format is binding. The following applies: HEK cell membranes, radioligand [3H]-CP-55,940. On the procedure:
as §1, with “cannabinoid CB2” for “cannabinoid”, “CB2” for “CB1”, “[^3H]-CP-55,940” for “[3H]-CP-55,940”
as §2

The subject of another data set is ABCA1 protein. In words: Detection of upregulation of ABCA1 protein in cells (ApoA-I binding, high content image analysis). The format is cell-based. The conditions noted are these: THP-1 macrophage cells; for % increase of ABCA1 at 3 μM: compound at 3 μM, 24 hrs; for EC50: ABCA1 protein detection assay. As for the experimental part: The ability of compounds of the invention to increase the level of ABCA1 protein is determined in replicate cultures of THP-1 macrophage cells in 96-well microplates. Cells are plated at an initial density of 100,000 cells/well in 100 μl medium and differentiated to adherent macrophages with the addition of PMA (100 nM) for 68 hrs in 10% fetal bovine serum, 3 μl/L of b-mercaptoethanol, RPMI-1640 medium. Then, cells are incubated with RPMI-1640 medium containing 1% FCS, 25 μg/ml acetylated LDL, for 24 hours at 37°. Following incubation with acetylated LDL, cells are washed twice with 50 μl PBS and incubated with 100 μl of RPMI-1640 medium containing the compound of interest solubilized in DMSO for an additional 24 hrs. The final DMSO concentration in presence of cells is maintained at 0.5%. ApoA-I binding assay using High Content Image Analysis is initiated by replacing with fresh medium, RPMI without Phenol Red, 0.2% BSA containing AlexaFluor®647 labeled ApoA-I for 2 h/37° C./5% CO2. Then, cells are fixed with 4% Formaldehyde in PBS (15 min, RT). Following Nuclei are stained with Hoechst solution (3 μM PBS) and Cytoplasm with Cell Mask Blue (2 μg/ml PBS), 15 min, RT. Finally the stained cells are fixed with a second round of formaldehyde treatment. Fixed stained cells are washed and kept in PBS at 4° C. and can be read immediately until one month after preparation.
The Alexa Fluor 647-labeled Apolipoprotein A-I (20 nM) was prepared as follows: Human recombinant Apolipoprotein A-I (ApoA-I) was exchanged to a buffer of 0.02 M NaHCO3 at pH 8.2 on an NAP desalting column (GE Healthcare) and brought to a concentration to 40 μM (1.13 mg/ml) by adjustment with the same buffer. The ApoA-I was fluorescently labeled by incubation with Alexa Fluor carboxylic acid succimidyl ester (Alexa Fluor 647, Invitrogen A-20006) at a 2:1 molar ratio (Alexa to ApoA-I) for 1 h under shaking at RT). The remaining unconjugated label was removed by buffer exchange to 0.02M NaHCO3 at pH 8.2.
Imaging and data collection were performed on an OPERA confocal microplate imaging reader using a 20× water immersion objective and UV360 or 405 laser to identify the cell nuclei and a 635 laser to identify the fluorescent ApoA-I. Eight fields of view are captured per well. Image capture and analysis was performed with the Acapella software. Background fluorescence detected in control wells without ApoA-I was subtracted.
Using XLfit3 program (ID Business Solutions Ltd. UK), the model 205 for Dose Response One Site is used to calculate the EC50 values. […] Particularly, the compounds of the present invention have EC50 values in a range of 0.1 μM to 3 μM.

T2 sequence (P34972 whole entry): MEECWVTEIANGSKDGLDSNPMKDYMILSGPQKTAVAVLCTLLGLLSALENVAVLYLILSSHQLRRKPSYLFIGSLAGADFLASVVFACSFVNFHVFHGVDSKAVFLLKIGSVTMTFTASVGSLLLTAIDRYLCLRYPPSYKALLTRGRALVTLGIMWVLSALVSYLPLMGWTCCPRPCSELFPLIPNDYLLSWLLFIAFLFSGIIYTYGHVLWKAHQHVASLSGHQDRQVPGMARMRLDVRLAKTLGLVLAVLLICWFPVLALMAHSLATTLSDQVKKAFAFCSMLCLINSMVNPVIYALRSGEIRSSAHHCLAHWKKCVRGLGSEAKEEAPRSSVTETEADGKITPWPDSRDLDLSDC
T1 sequence (P21554 whole entry): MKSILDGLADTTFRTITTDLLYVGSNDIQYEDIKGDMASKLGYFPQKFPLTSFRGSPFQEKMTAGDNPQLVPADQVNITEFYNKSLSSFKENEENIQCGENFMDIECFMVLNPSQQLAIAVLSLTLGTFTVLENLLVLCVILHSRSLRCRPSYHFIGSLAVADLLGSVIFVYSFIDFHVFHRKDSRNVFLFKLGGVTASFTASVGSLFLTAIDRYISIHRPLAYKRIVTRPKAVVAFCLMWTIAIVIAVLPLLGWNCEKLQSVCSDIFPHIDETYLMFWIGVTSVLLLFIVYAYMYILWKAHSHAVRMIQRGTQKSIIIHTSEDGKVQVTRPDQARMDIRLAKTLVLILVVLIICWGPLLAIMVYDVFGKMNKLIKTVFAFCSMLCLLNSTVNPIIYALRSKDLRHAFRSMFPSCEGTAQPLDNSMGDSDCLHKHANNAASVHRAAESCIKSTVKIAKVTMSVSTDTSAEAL

In turn, `CO/N=C(/CNC(=O)c1cnc(OCC(F)(F)F)c(-c2ccc(Cl)c(Cl)c2)c1)C(F)(F)F` [Example 15, 5-(3,4-Dichloro-phenyl)-6-(2,2,2-trifluoro-ethoxy)-N-{3,3,3-trifluoro-2-[(Z)-methoxyimino]-propyl}-nicotinamide] came in with a melting point of 124 to 126 °C. The inhibition at 10 µM on human CB1 receptor came to 32%. Further, the inhibition at 10 µM at human CB2 receptor turned out to be 23.2%. For the same compound, the “% increase of ABCA1 at 3 μM” value in the data set on ABCA1 protein stood at 50.5% @ 3 μM.
On to `CO/N=C1\CCCC[C@@H]1NC(=O)c1cc(-c2ccc(Cl)cc2)c(OCC2CC2)nn1` [Example 18, 5-(4-Chloro-phenyl)-6-cyclopropylmethoxy-pyridazine-3-carboxylic acid {(S)-2-[(E)-methoxyimino]-cyclohexyl}-amide], for which, at human CB1 receptor, the inhibition at 10 µM was determined as 26.9%. Besides, on human CB2 receptor, the inhibition at 10 µM was found to be 32.5%. Also, in the data set with ABCA1 protein, the EC50 came to 4990 nM and the “% increase of ABCA1 at 3 μM” value is on record as 57.3% @ 3 μM.
With `CO/N=C(\CNC(=O)c1ncc(OCC2CC2)c(-c2ccc(Cl)cc2)n1)C1CC1` [Example 19, 4-(4-Chloro-phenyl)-5-cyclopropylmethoxy-pyrimidine-2-carboxylic acid {2-cyclopropyl-2-[(Z)-methoxyimino]-ethyl}-amide], the inhibition at 10 µM at human CB1 receptor came out at 28%; at human CB2 receptor, 63.8%. The “% increase of ABCA1 at 3 μM” value with ABCA1 protein came out at 84.2% @ 3 μM.
As to `CO/N=C(/CNC(=O)c1ncc(OCC2CC2)c(-c2ccc(Cl)cc2)n1)C1CC1` [Example 20, 4-(4-chloro-phenyl)-5-cyclopropylmethoxy-pyrimidine-2-carboxylic acid {2-cyclopropyl-2-[(E)-methoxyimino]-ethyl}-amide], the inhibition at 10 µM was 28.8% at human CB1 receptor and 71.7% at human CB2 receptor. The “% increase of ABCA1 at 3 μM” value with ABCA1 protein was determined as 87.03% @ 3 μM.
Turning to `CO/N=C(/CNC(=O)c1ccc(OCC(F)(F)F)c(-c2ccc(Cl)cc2)n1)C(F)(F)F` [Example 21, 6-(4-Chloro-phenyl)-5-(2,2,2-trifluoro-ethoxy)-pyridine-2-carboxylic acid {3,3,3-trifluoro-2-[(Z)-methoxyimino]-propyl}-amide], the values for the inhibition at 10 µM on human CB1 receptor and at human CB2 receptor were 41% and 31%, respectively. The “% increase of ABCA1 at 3 μM” value in the data set with ABCA1 protein is recorded as 50% @ 3 μM.
For the compound `O=C(NC/C(=N/OCC(F)(F)F)C1CC1)c1cnc(OCC(F)(F)F)c(-c2ccc(Cl)c(Cl)c2)c1` [Example 22, N-{2-Cyclopropyl-2-[(E/Z)-2,2,2-trifluoro-ethoxyimino]-ethyl}-5-(3,4-dichloro-phenyl)-6-(2,2,2-trifluoro-ethoxy)-nicotinamide], the values for the inhibition at 10 µM on human CB1 receptor and on human CB2 receptor were 36% and 9%, respectively. The “% increase of ABCA1 at 3 μM” value in the data set with ABCA1 protein was 74% @ 3 μM.
As for `CO/N=C(/CNC(=O)c1cc(-c2ccc(Cl)c(Cl)c2)c(OCC(F)(F)F)nn1)C1CC1` [Example 23, (E)-N-(2-cyclopropyl-2-(methoxyimino)ethyl)-5-(3,4-dichlorophenyl)-6-(2,2,2-trifluoroethoxy)pyridazine-3-carboxamide], the melting point was 147 to 150 °C. In addition, the inhibition at 10 µM on human CB1 receptor was -2%. Besides, the inhibition at 10 µM at human CB2 receptor was found to be 14%. Further, in the data set on ABCA1 protein, the response was half-maximal at 540 nM (EC50) and the “% increase of ABCA1 at 3 μM” value is recorded as 88% @ 3 μM.
On to `CO/N=C1\CCCC[C@@H]1NC(=O)c1cc(-c2ccc(Cl)c(Cl)c2)c(OCC(F)(F)F)nn1` [Example 24, 5-(3,4-Dichloro-phenyl)-6-(2,2,2-trifluoro-ethoxy)-pyridazine-3-carboxylic acid {(S)-2-[(E)-methoxyimino]-cyclohexyl}-amide], for which the melting point lay in the range of 106 to 109 °C. Moreover, on human CB1 receptor, the inhibition at 10 µM worked out at 22%. In addition, on human CB2 receptor, the inhibition at 10 µM came to 31%. For the same compound, the “% increase of ABCA1 at 3 μM” value in the data set on ABCA1 protein is 85% @ 3 μM.
`CO/N=C(/CNC(=O)c1cc(-c2ccc(Cl)cc2)c(O[C@@H](C)C(F)(F)F)nn1)C1CC1` [Example 25, (S,E)-5-(4-Chlorophenyl)-N-(2-cyclopropyl-2-(methoxyimino)ethyl)-6-(1,1,1-trifluoropropan-2-yloxy)pyridazine-3-carboxamide]: the inhibition at 10 µM came out at 39% on human CB1 receptor and 29% at human CB2 receptor. Further, the “% increase of ABCA1 at 3 μM” value with ABCA1 protein was found to be 61% @ 3 μM.
`CO/N=C(/CNC(=O)c1cnc(O[C@@H](C)C(F)(F)F)c(-c2ccc(Cl)cc2)n1)C1CC1` [Example 26, (S,E)-6-(4-Chlorophenyl)-N-(2-cyclopropyl-2-(methoxyimino)ethyl)-5-(1,1,1-trifluoropropan-2-yloxy)pyrazine-2-carboxamide] came in with a melting point of 149 to 152 °C. Further, the inhibition at 10 µM on human CB1 receptor is 13%. The inhibition at 10 µM at human CB2 receptor was 9%. Further, in the data set with ABCA1 protein, the midpoint of the response, the EC50, lay at 1120 nM and the “% increase of ABCA1 at 3 μM” value amounted to 79% @ 3 μM.
The compound `CO/N=C1\CCCC[C@@H]1NC(=O)c1cnc(O[C@@H](C)C(F)(F)F)c(-c2ccc(Cl)cc2)n1` [Example 27, 6-(4-Chlorophenyl)-N-((S,E)-2-(methoxyimino)cyclohexyl)-5-((S)-1,1,1-trifluoropropan-2-yloxy)pyrazine-2-carboxamide] registered a melting point of 120 to 123 °C. At human CB1 receptor, the inhibition at 10 µM amounted to 21%. Also, on human CB2 receptor, the inhibition at 10 µM is 21%. Also, the “% increase of ABCA1 at 3 μM” value with ABCA1 protein came to 65% @ 3 μM.
With `CO/N=C1\CCCC[C@@H]1NC(=O)c1ncc(O[C@@H](C)C(F)(F)F)c(-c2ccc(Cl)cc2)n1` [Example 28, 4-(4-Chlorophenyl)-N-((S,E)-2-(methoxyimino)cyclohexyl)-5-((S)-1,1,1-trifluoropropan-2-yloxy)pyrimidine-2-carboxamide], the melting point lay in the range of 180 to 182 °C. Also, the inhibition at 10 µM on human CB1 receptor worked out at 34.4%. The inhibition at 10 µM on human CB2 receptor worked out at 18%. Moreover, in the data set on ABCA1 protein, a half-maximal response (EC50) required 780 nM and the “% increase of ABCA1 at 3 μM” value is recorded as 86.5% @ 3 μM.
`CO/N=C1\CCCC[C@@H]1NC(=O)c1cc(-c2ccc(Cl)cc2)c(O[C@@H](C)C(F)(F)F)cn1` [Example 29, 4-(4-Chlorophenyl)-N-((S,E)-2-(methoxyimino)cyclohexyl)-5-((S)-1,1,1-trifluoropropan-2-yloxy)picolinamide] came in with a melting point of 123 to 125 °C. The inhibition at 10 µM at human CB1 receptor came out at 35.5%. Besides, the inhibition at 10 µM at human CB2 receptor is 33%. The “% increase of ABCA1 at 3 μM” value with ABCA1 protein stood at 53.4% @ 3 μM.
As to `CO/N=C(/CNC(=O)c1cc(-c2ccc(Cl)cc2)c(OCC(F)(F)F)cn1)C1CC1` [Example 32, (E)-4-(4-chlorophenyl)-N-(2-cyclopropyl-2-(methoxyimino)ethyl)-5-(2,2,2-trifluoroethoxy)picolinamide], the figures for the inhibition at 10 µM on human CB1 receptor and on human CB2 receptor were 15% and 29%, respectively. Further, the “% increase of ABCA1 at 3 μM” value in the data set on ABCA1 protein came to 53% @ 3 μM.

Usually inhibition stands for the change of the read-out against control, counted positive when it falls. For orientation: melting point means the temperature of the solid-liquid transition. For orientation: EC50 means the concentration giving half of the maximal effect.

The values are drawn from patent US8669254B2, “Pyridine, pyridazine, pyrimidine or pyrazine carboxamides as HDL-cholesterol raising agents” (Hoffman-La Roche Inc., priority 2010, dated 2014).
